The test system of series [1] is Plasmodium falciparum strain Pf3D7. The series can be described thus: In vitro antiplasmodial assay (pLDH assay). The conditions noted are these: read-out: IC50 Pf3D7.
Series [2] in a line: Cytotoxicity assay (resazurin). The series is classed as cell-based. The settings on record: human, compounds and combinations, HeLa cells, read-out: % Cell Viability ± sd Cytotoxicity. The procedure: Human cervix adenocarcinoma cells (HeLa cells) were used to check the toxicity of the crude extract and compounds and their combinations as described by Keusch et al. (1972). Stocks solutions were prepared in DMSO at a concentration of 50 μg/mL for the extracts and 20 μM for compounds, and combinations. To assess the overt cytotoxicity, samples were placed in 96-well plates containing cells for 48 h. The numbers of cells surviving drug treatment were determined using the resazurin based reagent and reading resorufin fluorescence in a Spectramax M3 microplate reader. Results were expressed as % viability-the resorufin fluorescence in compound-treated wells relative to untreated controls. Compounds were tested in duplicate and standard deviations (SD) derived. […] (which induces cell apoptosis) was used as the positive control.
(In general: The colour change of resazurin is a common sign of viable cells or microbes.)

The test system of series [3] is Trypanosoma brucei brucei. The series is described as follows: In vitro antitrypanosomal assay (resazurin viability). The settings on record: for antitrypanosomal activity against Tb brucei (in words): in vitro; for IC50: Trypanosoma brucei.
[4] abbreviates: read-out: IC50 Tb brucei, compounds, values given in µg/mL in the text.

The structures appear in SMILES notation. Like-named read-outs stand apart in the source and are kept apart here.

The values that follow come from article PMC7357032, “Antiparasitic Constituents of Beilschmiedia louisii and Beilschmiedia obscura and Some Semisynthetic Derivatives (Lauraceae)” (Molecules, 2020).

The term viability denotes a read-out of living cells in per cent, often relative to untreated cells.

In the case of `CCN(CC)CCCC(C)Nc1ccnc2cc(Cl)ccc12` (stereo not drawn) [Chloroquine], the IC50 in series [1] was determined as 0.034 µM.
With `CCCC/C=C\CCCCc1ccccc1` [Compound 3, (5Z) 1-phenyldec-5-ene], the viability at 48 h, 20 µM (stock) in series [2] turned out to be 50.3 ± 8.9%.
`O=C(O)CCCCCCCCCCCCCCc1ccccc1` [Compound 5, 15-phenylpentadecanoic acid]: the viability at 48 h, 20 µM (stock) in series [2] was determined as 76.6 ± 4.1%.
Take `CCCCCCCCC1C2C=CC3C(C(=O)O)C=CC4CC1C2C43` (stereo not drawn) [Compound 11, beilschmiedic acid E]: the viability at 48 h, 20 µM (stock) in series [2] was 100 ± 5.8%. In addition, the “antitrypanosomal activity against Tb brucei (in words)” value in series [3] was “inactive”.
In the case of `CCCCCCCCC1C2C=CC3C(CO)C=CC4CC1C2C43` (stereo not drawn) [Compound 11a, beilschmiedol A], in series [2], the viability at 48 h, 20 µM (stock) came to 52.6 ± 1.8%. Besides, the “antitrypanosomal activity against Tb brucei (in words)” value in series [3] is “moderate activity”.
Take `CCCCCCCC[C@@H]1[C@H]2C=C[C@H]3C(C=O)=CC[C@@H]4C[C@@H]1[C@@H]2[C@H]43` [Compound 11b, beilschmiedal]: the viability at 48 h, 20 µM (stock) in series [2] came to 79.6 ± 17.1%. Besides, the IC50 in series [1] was 31.4 µM; in series [3] (setting [4]), 8.3 µg/mL.
For `CCCCCCCC[C@@H]1[C@H]2C=C[C@H]3C(/C=N/NC(N)=S)=CC[C@@H]4C[C@@H]1[C@@H]2[C@H]43` [Compound 11c, beilschmiecarbazone], the viability at 48 h, 20 µM (stock) in series [2] was found to be 100 ± 2.8%.
With `CCCCCCCCC1C2C=CC3C(COC(=O)c4cc(OC)c(OC)c(OC)c4)C=CC4CC1C2C43` (stereo not drawn) [Compound 11d, beilschmiegallate], the viability at 48 h, 20 µM (stock) in series [2] worked out at 100 ± 3.4%.
Consider `O=C(O)C[C@@H]1[C@H]2C=C[C@H]3C(c4ccc5c(c4)OCO5)=CC[C@@H]4C[C@@H]1[C@@H]2[C@H]43` [Compound 12, methylenedioxyendiandric acid A], for which, in series [2], the viability at 48 h, 20 µM (stock) stood at 100 ± 10.8%.
Regarding `CC[C@H](CC[C@@H](C)[C@H]1CC[C@H]2[C@@H]3CC=C4C[C@@H](O)CC[C@]4(C)[C@H]3CC[C@]12C)C(C)C` [Compound 13, β-sitosterol], the IC50 in series [3] (48 h, read-out: IC50 Tb Brucei, isolated compounds, mixtures and drug standard, dose-response, for 6 + 7 IC50 maximum calculated with the constituent of lowest molecular mass) was 9.5 µM.
On to `N=C(N)c1ccc(OCCCCCOc2ccc(C(=N)N)cc2)cc1` [Pentamidine, reference compound], for which the IC50 in series [3] (setting [4]) was approximately 0.01 µg/mL.
